Active and inactive are the calls of the source.
Key:
Protein Wnt-3a = Protein Wnt-3a (Mus musculus, UniProt P27467); test: Wnt3a-driven reporter signaling inhibition, dose response, selectivity assay for Gli-SUFU antagonist project, Wnt-LIGHT cells, luminescence (AID 651570); assay type: functional; settings: read-out: IC50_Mean;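 note: Wnt-LIGHT reporter cells stimulated with conditioned medium from Wnt3a-producing cells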
Major prion protein = Major prion protein (Homo sapiens, UniProt P04156); assay type: functional, cell-based
[1] = target: NAD-dependent protein deacylase sirtuin-5, mitochondrial (Homo sapiens, UniProt Q9NXA8); test: SIRT5 desuccinylase inhibitors, dose response, biochemical, fluorescence imaging, cherry-pick, set 5 (AID 720591);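 note: desuccinylation of succinyl peptide AMC substrate read as fluorescence after trypsin release; potency of inhibitors that lower fluorescence and may act on trypsin instead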
[2] = target: T1, Corticotropin-releasing factor receptor 2/Corticotropin-releasing factor-binding protein (Homo sapiens, UniProt P24387+Q13324); test: Dose Response confirmation of uHTS hits for small molecule antagonists of the CRF-binding protein and CRF-R2 receptor complex.; assay type: functional; settings: read-out: IC50_Mean
T1 sequence (Q13324 whole entry): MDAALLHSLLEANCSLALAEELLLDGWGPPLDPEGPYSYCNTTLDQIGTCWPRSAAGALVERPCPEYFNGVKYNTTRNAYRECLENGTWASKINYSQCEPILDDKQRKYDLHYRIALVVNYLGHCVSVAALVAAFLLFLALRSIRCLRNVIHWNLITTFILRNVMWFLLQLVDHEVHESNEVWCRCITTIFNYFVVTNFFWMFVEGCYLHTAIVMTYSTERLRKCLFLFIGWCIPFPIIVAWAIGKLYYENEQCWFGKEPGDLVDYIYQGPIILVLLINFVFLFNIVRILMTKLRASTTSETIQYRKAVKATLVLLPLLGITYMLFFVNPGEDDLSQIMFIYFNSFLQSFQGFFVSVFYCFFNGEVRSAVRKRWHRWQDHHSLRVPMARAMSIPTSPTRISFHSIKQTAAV
T1 sequence (P24387 whole entry): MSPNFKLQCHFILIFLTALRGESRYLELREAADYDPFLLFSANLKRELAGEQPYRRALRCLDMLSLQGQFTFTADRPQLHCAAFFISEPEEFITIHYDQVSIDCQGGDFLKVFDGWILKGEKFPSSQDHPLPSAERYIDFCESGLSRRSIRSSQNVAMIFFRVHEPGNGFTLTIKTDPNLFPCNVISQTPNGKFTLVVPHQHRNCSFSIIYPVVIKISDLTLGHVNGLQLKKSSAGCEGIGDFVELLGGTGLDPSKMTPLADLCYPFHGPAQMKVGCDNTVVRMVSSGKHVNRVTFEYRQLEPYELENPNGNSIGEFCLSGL

[3] = CRF-BP/CRF-R2 complex antagonists, dose response, cell-based, uHTS hits, 384-well (AID 651639); assay type: functional, Homo sapiens; settings: read-out: IC50_Mean
[4] = target: T1, Corticotropin-releasing factor receptor 2/Corticotropin-releasing factor-binding protein; test: activators of CRF receptor 2 with binding protein – uHTS hits, confirmation (AID 602473); assay type: functional; settings: read-out: EC50_Mean
Prothrombin = Prothrombin (Homo sapiens, UniProt P00734); test: Thrombin 1536 HTS Dose Response Confirmation. [Related pubchem assays: 1046 (Thrombin 1536 HTS; hits were confirmed in this assay)]; assay type: functional
[5] = NIH:OVCAR-3 ovarian cancer cell cytotoxicity, dose response, PAX8 inhibitor project, plate reader, dry powder samples (AID 743044); assay type: functional, cell-based
[6] = cytotoxicity in OVCAR8 ovarian cancer cells, dose response, PAX8 project, cell-based, plate reader, dry powder samples (AID 743197); assay type: functional; settings: OVCAR-8
Paired box protein Pax-8 = Paired box protein Pax-8 (Homo sapiens, UniProt Q06710); test: inhibitors of PAX8-driven TPO luciferase reporter, dose response, RMG-I cells, cherry-pick (AID 687027); assay type: functional, cell-based;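 note: luciferase reporter driven by Pax8 target thyroperoxidase promoter measured by SteadyGlo luminescence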
[7] = A2780 ovarian cancer cell cytotoxicity, dose response, cytotoxicity control, plate reader, dry powder samples (AID 743046); assay type: functional, cell-based
[8] = target: T2, Carboxy-terminal domain RNA polymerase II polypeptide A small phosphatase 1 (Homo sapiens, UniProt Q9GZU7); test: inhibitors of CTDSP1, concentration-response testing, biochemical assay, absorbance-based, actives from ultra-high-throughput screening (AID 540297); assay type: functional
T2 sequence (Q9GZU7 whole entry): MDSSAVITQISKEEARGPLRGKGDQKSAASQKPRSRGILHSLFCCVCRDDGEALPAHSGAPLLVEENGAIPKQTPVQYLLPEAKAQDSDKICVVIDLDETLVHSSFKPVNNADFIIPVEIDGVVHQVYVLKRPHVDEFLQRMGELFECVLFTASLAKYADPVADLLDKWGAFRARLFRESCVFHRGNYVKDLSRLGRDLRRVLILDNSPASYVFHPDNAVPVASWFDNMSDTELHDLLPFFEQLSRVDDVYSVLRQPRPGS

[9] = target: T3, Low molecular weight phosphotyrosine protein phosphatase (Homo sapiens, UniProt P24666); assay type: functional; settings: read-out: IC50_Mean;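 note: Dose-response confirmation assay measuring inhibition of LMPTP enzyme activity by fluorescence intensity read-out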
T3 sequence (P24666 whole entry): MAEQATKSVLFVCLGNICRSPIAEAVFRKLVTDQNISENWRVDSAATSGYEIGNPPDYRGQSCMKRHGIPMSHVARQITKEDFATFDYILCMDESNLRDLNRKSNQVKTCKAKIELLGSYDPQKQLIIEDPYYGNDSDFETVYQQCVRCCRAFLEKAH

[10] = Luminescence-based cell-based high throughput dose response assay to identify activators of the DAF-12 from the parasite S. stercoralis (ssDAF-12).; assay type: functional
[11] = P. falciparum Dd2 growth inhibitors, dose response, SYBR Green, cherry-picked samples (AID 1159567); assay type: functional, cell-based
[12] = HepG2 cell cytotoxicity, dose response, cytotoxicity control, plate reader, dry powder samples (AID 1159569); assay type: functional, cell-based;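 note: inhibitor potency with signal falling toward the positive control level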
[13] = P. falciparum ATP4 D1247Y mutant growth inhibitors, dose response, NITD609-resistant line, SYBR Green, dry powder (AID 1159571); assay type: functional, cell-based;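 note: parasites synchronized at ring stage by sorbitol before testing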
[14] = P. falciparum Dd2 growth inhibitors, dose response, SYBR Green, dry powder samples (AID 1159566); assay type: functional, cell-based;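 note: potency for growth inhibition with lower SYBR green DNA signal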
[15] = P. falciparum 3D7-ScDHODH growth inhibitors, dose response, SYBR Green, dry powder samples (AID 1159570); assay type: functional, cell-based;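 note: parasite growth measured after 72 hours of compound exposure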
[16] = target: Voltage-gated inwardly rectifying potassium channel KCNH2 (Homo sapiens, UniProt Q12809); test: hERG protection from proarrhythmic block, potency, dose response, cell-based, thallium flux (AID 2121); assay type: ADME
HEK293 = test: cells; assay type: functional, cell-based; settings: Homo sapiens
[17] = target: T4, Nuclear receptor subfamily 0 group B member 1 (Homo sapiens, UniProt P51843); test: Luminescence-based cell-based high throughput dose response assay for inhibitors of the orphan nuclear receptor subfamily 0, group B, member 1 (DAX1; NR0B1). [Related pubchem assays (depositor defined):AID504766, AID504790]; assay type: functional
T4 sequence (P51843 whole entry): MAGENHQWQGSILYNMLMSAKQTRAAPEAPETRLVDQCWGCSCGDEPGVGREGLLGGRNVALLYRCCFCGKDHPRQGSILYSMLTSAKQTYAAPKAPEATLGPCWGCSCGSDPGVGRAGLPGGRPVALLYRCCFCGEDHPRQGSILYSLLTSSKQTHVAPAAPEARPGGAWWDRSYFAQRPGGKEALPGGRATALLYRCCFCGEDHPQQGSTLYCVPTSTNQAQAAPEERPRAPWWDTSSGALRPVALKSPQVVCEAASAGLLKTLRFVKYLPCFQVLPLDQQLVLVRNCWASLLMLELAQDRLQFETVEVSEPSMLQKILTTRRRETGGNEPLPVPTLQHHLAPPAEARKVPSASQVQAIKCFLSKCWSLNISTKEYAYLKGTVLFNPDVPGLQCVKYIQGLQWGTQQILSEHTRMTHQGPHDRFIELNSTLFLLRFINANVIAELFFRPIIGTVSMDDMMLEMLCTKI

[18] = target: T5, Heat shock factor protein 1 (Mus musculus, UniProt P38532); test: inhibition of MG132-induced HSE-luciferase signal, confirmation, cell-based, NIH3T3, luminescence, dose retest (AID 2382); assay type: functional;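 note: NIH3T3 fibroblasts with HSF1-driven luciferase reporter stressed by proteasome inhibitor MG132; luminescence from HSF1-driven luciferase expression after 8 hours of MG132 stress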
T5 sequence (P38532 whole entry): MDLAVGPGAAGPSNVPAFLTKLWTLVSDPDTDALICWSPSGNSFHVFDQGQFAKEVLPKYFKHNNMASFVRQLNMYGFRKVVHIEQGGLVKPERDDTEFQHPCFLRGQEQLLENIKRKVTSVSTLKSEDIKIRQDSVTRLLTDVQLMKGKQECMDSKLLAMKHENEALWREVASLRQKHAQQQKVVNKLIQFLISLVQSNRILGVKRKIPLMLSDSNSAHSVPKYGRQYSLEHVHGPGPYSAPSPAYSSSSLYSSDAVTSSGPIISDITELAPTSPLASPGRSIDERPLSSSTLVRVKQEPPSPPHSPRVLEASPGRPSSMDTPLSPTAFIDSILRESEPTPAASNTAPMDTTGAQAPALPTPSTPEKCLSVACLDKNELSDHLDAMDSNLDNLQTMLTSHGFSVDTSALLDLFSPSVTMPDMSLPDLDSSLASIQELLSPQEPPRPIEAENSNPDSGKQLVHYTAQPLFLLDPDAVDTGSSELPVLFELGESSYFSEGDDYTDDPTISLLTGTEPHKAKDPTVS

[19] = cytotoxicity in HEK-293T cells, dose response, cytotoxicity control for TCR NF-kB inhibitor project, luminescence, T-cell screen hits (AID 489026); assay type: functional, cell-based;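 note: cells exposed to compound about 14 hours before the viability readout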

COC(=O)C1=C(c2cc3ccccc3o2)C[C@@H]2CC[C@H]1N2C(=O)N1CCC(C)CC1
IC50 (Protein Wnt-3a): 24.4 µM (inactive)

CCc1c(C)nc2c(Br)cccc2c1SCCC#N
IC50 (cells): > 138 µM (inactive)
IC50 (Major prion protein): 2.52 µM (active)
AC50 [1]: > 30 µM (inactive)

CC(C)c1cc(C(F)(F)F)nc(NNc2nc(C(C)C)cc(C(F)(F)F)n2)n1
IC50 [2]: 0.988 µM (active)
IC50 [3]: > 20 µM (inactive)
EC50 [4]: > 53 µM (inactive)

O=C(NCc1ccccc1)C1=C[C@@H](c2coc3ccccc3c2=O)C[C@@H](OCCCCO)O1
IC50 (Prothrombin): > 50 µM (not active)

C[C@@H]1CN([C@@H](C)CO)C(=O)Cc2cc(NC(=O)NC3CCCCC3)ccc2O[C@H]1CN(C)Cc1ccc(-c2ccccc2)cc1
AC50 [5]: 49.5 µM (active)
AC50 [6]: 34 µM (active)
AC50 (Paired box protein Pax-8): 8.66 µM (active)
AC50 [7]: 31.8 µM (active)

O=C(/C=C/c1cccc([N+](=O)[O-])c1)Nc1ccc(NC(=O)c2cccs2)cc1
IC50 [8]: 4.11 µM (active)
IC50 [9]: 27.3 µM (inactive)

Cc1cc2oc(C(=O)NCC(c3ccco3)N3CCCC3)c(C)c2cc1C (stereo not given)
IC50 [10]: > 67.6 µM (inactive)

NNC(=O)CN1C(=O)Nc2ccc(Br)cc2C1c1ccccc1 (stereo not given)
IC50 (Prothrombin): > 50 µM (not active)

COc1ccc(NC(=O)c2c(F)cccc2F)cc1S(=O)(=O)Nc1ccc(Br)cc1
IC50 [2]: 20 µM (active)
IC50 [3]: 18.9 µM (active)
EC50 [4]: > 53 µM (inactive)

Cc1cc(NC(=O)CSc2nc(O)c(C#N)c(-c3ccccc3)n2)no1
IC50 (cells): > 138 µM (inactive)
IC50 (Major prion protein): 7.14 µM (active)

Cc1cc(C2C(=O)c3ccccc3C2=O)c(C)c(C)c1C
AC50 [1]: > 30 µM (inactive)

COc1ccc(NC(=O)Nc2ccc3c(c2)C(=O)N([C@H](C)CO)C[C@@H](C)[C@@H](CN(C)C(=O)Cc2ccccc2)OCCCC[C@H](C)O3)cc1
AC50 [6]: > 70 µM (inactive)
AC50 (Paired box protein Pax-8): 30.9 µM (active)
AC50 [7]: 16.6 µM (active)

COc1ccc(NC(=O)N2CCCCN3[C@H](CO)[C@H](c4ccc(C#CCC(C)C)cc4)[C@@H]3C2)cc1
AC50 [11]: 0.636 µM (active)
AC50 [12]: > 100 µM (inactive)
AC50 [13]: 0.264 µM (active)
AC50 [14]: 0.418 µM (active)
AC50 [15]: 0.209 µM (active)

CCc1nnc(NC(=O)CCC(=O)N2CCCC2)s1
IC50 (Prothrombin): > 50 µM (not active)

CCOC(=O)N1CCN(C(=O)C2CCCN(S(=O)(=O)c3cc(C)ccc3OC)C2)CC1 (stereo not given)
IC50 (Prothrombin): > 50 µM (not active)

O=C1N2CCSC2=NC1(NS(=O)(=O)c1ccccc1)C(F)(F)F (stereo not given)
EC50 [16]: 2.27 µM (active)

C[C@@H]1CN([C@H](C)CO)C(=O)c2ccccc2-c2ccccc2CO[C@H]1CN(C)C(=O)Nc1cccc(Cl)c1Cl
AC50 [11]: 1.01 µM (active)
AC50 [12]: > 100 µM (inactive)
AC50 [13]: 1.65 µM (active)
AC50 [14]: 0.56 µM (active)
AC50 [15]: 0.466 µM (active)

COc1ccc(C(=O)C2CCCN(Cc3c[nH]nc3-c3ccccc3)C2)cc1OC (stereo not given)
AC50 [1]: > 30 µM (inactive)

CN(C(=S)NC(=O)c1ccc(F)cc1)C1CCCCC1
EC50 [16]: 8.79 µM (active)

CCN1C(=O)C2(C(C(=O)c3cc4ccccc4o3)=C(O)C(=O)N2CCCN2CCOCC2)c2ccccc21 (stereo not given)
IC50 (cells): > 138 µM (inactive)
IC50 (Major prion protein): 2.08 µM (active)

CC(C)Sc1snnc1-c1ccccc1
IC50 [2]: < 0.368 µM (active)
IC50 [3]: > 20 µM (inactive)
EC50 [4]: > 53 µM (inactive)

CC1(C)Cc2c(sc3nc(C4CC4)n(N)c(=O)c23)CO1
IC50 (HEK293): > 67.6 µM (inactive)
IC50 [17]: > 67.6 µM (inactive)
EC50 [18]: > 195 µM (not active)

Cc1cccc(NC(=S)NC(=O)c2cc(-c3ccccc3)nc3ccccc23)c1
EC50 [16]: 0.53 µM (active)

CCCCOc1ccc(N2C(N)=NC(N)=NC23CCCCC3)cc1
IC50 (Protein Wnt-3a): 18.3 µM (active)

COc1cc(C(=O)Nc2ccc3c(c2)ncn3C)cc(OC)c1OC
IC50 (cells): > 138 µM (inactive)
IC50 (Major prion protein): 6.23 µM (active)
IC50 [19]: > 80 µM (inactive)

CCOC(=O)c1c(C)[nH]c(C)c1C(=O)COC(=O)c1ccccc1O
AC50 [1]: 20 µM (active)

NC(=O)c1cccnc1Nc1cccc([N+](=O)[O-])c1
EC50 [16]: 2.98 µM (active)

From ChEMBL document CHEMBL1201862, “PubChem BioAssay data set” (2004)
